Literature values as cited in US11446408B2, “Composition and methods for antimicrobial articles” (priority 2011, dated 2022).

Key:
Settings in all cases: 10 minutes at 25 degrees Celsius
enteric bacteria = tested on: enteric bacteria
amoebic cysts = tested on: amoebic cysts
enteric viruses = tested on: enteric viruses

II [iodine]
iodine sufficient to kill enteric bacteria (enteric bacteria): 0.2 PPM | iodine sufficient to kill amoebic cysts (amoebic cysts): 3.5 PPM | iodine sufficient to kill enteric viruses (enteric viruses): 14.6 PPM
